Source: ChEMBL document CHEMBL4673253, “Discovery of EST73502, a Dual μ-Opioid Receptor Agonist and σ Receptor Antagonist Clinical Candidate for the Treatment of Pain” (J Med Chem, 2020)

Tests used:
[1] = target: T1, Mu-type opioid receptor (Homo sapiens, UniProt P35372); assay: Displacement of [3H]-DAMGO from human MOR expressed in CHOK1 cell membranes incubated for 60 mins by liquid scintillation counting method; design: species or system CHO-K1, Cell membrane
[2] = target: T2, Sigma non-opioid intracellular receptor 1 (Homo sapiens, UniProt Q99720); assay: Displacement of 3H](+)-pentazocine from human sigma1 receptor expressed in HEK293 cell membranes incubated for 120 mins by liquid scintillation counting method; design: species or system Cell membrane
[3] = target: T1, Mu-type opioid receptor; assay: Agonist activity at human MOR expressed in CHOK1 cells assessed as […] of cAMP accumulation incubated for 45 mins by HTRF assay; type: functional, cell-based, CHO-K1
[4] = target: T1, Mu-type opioid receptor; assay: Agonist activity at human MOR expressed in CHOK1 cells assessed as […] of cAMP accumulation incubated for 45 mins by HTRF assay relative to DAMGO; type: functional, cell-based; settings: CHO-K1, filed as agonist
[5] = target: T3, Alpha-1A adrenergic receptor (Homo sapiens) (UniProt P35348); assay: Binding affinity to human alpha1A adrenoreceptor expressed in membranes assessed as inhibition of [3H]-prazosin binding incubated for 90 mins by scintillation counting method; design: concentration or dose not given beside the values; settings: Cell membrane
T3 sequence (whole entry): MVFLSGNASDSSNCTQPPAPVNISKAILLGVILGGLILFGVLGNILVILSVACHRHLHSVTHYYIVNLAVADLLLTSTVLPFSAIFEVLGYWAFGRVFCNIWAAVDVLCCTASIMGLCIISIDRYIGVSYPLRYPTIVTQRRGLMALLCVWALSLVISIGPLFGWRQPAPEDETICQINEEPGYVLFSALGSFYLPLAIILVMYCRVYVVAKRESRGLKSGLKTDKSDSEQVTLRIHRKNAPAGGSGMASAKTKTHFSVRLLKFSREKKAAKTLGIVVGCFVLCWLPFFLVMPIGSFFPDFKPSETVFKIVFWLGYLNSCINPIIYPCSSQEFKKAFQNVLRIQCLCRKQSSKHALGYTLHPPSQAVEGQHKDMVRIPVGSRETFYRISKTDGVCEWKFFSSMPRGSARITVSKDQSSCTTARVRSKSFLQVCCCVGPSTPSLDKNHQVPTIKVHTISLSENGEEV

[6] = target: Voltage-gated inwardly rectifying potassium channel KCNH2 (Homo sapiens, UniProt Q12809)
Description: Inhibition of human ERG expressed in CHO cells at -80 mV holding potential by whole cell patch clamp assay

[7] = target: T1, Mu-type opioid receptor; assay: Agonist activity at human MOR expressed in CHOK1 cells assessed as […] of cAMP accumulation at 1 uM incubated for 45 mins by HTRF assay; type: functional, cell-based; settings: CHO-K1
[8] = target: T1, Mu-type opioid receptor; assay: Displacement of [3H]-DAMGO from human MOR expressed in CHOK1 cell membranes at 1 uM incubated for 60 mins by liquid scintillation counting method; settings: CHO-K1, Cell membrane
[9] = target: hERG (KCNH2) (Homo sapiens, UniProt Q12809); assay: Inhibition of human ERG expressed in CHO cells at 10 uM at -80 mV holding potential by whole cell patch clamp assay; type: cell-based; settings: CHO cells expressing human ERG
[10] = target: T2, Sigma non-opioid intracellular receptor 1; assay: Displacement of 3H](+)-pentazocine from human sigma1 receptor expressed in HEK293 cell membranes at 10 uM incubated for 120 mins by liquid scintillation counting method; settings: Cell membrane
[11] = Toxicity in CD1 mouse assessed as inhibition of intestinal transit by measuring percentage of distance traveled by charcoal meal at 20 mg/kg, po; type: organism-based; settings: in vivo
[12] = tested on: Mus musculus; assay: Antinociceptive activity in CD1 mouse PSNL model assessed as reduction in mechanical allodynia by measuring decrease in the pressure required to elicit withdrawal of the ipsilateral paw after von Frey filament stimulation at 1.25 mg/kg, ip BID for 11 days from day 13 to day 22; type: functional; settings: 264 h, time 11 day
[13] = target: T1, Mu-type opioid receptor; assay: Displacement of [3H]-DAMGO from human MOR expressed in CHOK1 cell membranes at 10 uM incubated for 60 mins by liquid scintillation counting method; settings: CHO-K1, Cell membrane
[14] = target: T1, Mu-type opioid receptor; assay: Agonist activity at human MOR expressed in CHOK1 cells assessed as […] of cAMP accumulation at 10 uM incubated for 45 mins by HTRF assay; type: functional, cell-based; settings: CHO-K1

T1 sequence (P35372 whole entry): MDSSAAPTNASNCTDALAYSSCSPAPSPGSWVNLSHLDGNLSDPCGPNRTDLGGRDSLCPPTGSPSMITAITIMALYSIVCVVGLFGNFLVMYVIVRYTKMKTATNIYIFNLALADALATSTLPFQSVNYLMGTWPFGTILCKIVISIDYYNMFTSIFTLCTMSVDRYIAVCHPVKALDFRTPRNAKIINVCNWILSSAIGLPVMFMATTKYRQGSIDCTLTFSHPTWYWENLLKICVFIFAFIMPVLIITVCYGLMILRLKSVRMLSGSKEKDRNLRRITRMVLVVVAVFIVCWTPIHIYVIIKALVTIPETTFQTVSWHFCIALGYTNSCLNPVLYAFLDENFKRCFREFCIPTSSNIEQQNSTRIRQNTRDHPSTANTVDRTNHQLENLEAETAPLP
Chain of Voltage-gated inwardly rectifying potassium channel KCNH2 (Q12809 whole entry): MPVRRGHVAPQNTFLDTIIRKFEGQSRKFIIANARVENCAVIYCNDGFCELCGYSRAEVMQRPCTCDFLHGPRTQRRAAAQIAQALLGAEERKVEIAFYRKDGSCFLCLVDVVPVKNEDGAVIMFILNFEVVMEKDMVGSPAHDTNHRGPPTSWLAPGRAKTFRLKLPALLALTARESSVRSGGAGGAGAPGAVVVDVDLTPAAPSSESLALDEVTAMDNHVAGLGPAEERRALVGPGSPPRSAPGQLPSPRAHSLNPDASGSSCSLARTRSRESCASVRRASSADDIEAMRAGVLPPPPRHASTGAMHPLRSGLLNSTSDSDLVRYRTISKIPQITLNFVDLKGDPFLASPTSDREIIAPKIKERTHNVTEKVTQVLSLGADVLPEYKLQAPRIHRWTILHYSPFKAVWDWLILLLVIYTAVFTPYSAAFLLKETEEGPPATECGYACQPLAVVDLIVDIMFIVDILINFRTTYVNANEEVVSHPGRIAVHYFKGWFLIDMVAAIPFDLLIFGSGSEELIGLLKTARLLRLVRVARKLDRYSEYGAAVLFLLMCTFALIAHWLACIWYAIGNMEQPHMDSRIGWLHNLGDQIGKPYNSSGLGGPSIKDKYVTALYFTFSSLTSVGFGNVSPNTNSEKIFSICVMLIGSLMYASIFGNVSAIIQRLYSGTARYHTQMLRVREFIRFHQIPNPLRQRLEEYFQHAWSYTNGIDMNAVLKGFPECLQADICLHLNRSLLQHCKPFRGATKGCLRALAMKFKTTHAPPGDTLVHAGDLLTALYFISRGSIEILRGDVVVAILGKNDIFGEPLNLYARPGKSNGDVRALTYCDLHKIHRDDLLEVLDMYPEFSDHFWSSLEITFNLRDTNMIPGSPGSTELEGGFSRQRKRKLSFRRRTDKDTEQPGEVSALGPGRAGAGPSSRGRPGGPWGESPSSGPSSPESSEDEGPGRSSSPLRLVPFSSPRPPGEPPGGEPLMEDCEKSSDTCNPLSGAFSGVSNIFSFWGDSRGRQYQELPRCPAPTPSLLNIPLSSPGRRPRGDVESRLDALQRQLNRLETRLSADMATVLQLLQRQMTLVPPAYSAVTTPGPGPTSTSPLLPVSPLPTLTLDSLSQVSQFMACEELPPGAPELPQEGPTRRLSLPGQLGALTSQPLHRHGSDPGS
Chain of hERG (KCNH2) (Q12809 whole entry): as above
T2 sequence (Q99720 whole entry): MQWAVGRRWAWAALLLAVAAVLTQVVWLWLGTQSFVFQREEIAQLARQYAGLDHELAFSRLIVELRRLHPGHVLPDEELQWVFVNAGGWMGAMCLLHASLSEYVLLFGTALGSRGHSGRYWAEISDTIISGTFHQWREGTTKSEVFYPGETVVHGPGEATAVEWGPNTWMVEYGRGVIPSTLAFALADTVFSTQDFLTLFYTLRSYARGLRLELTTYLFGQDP

Structure (SMILES) | Ki [1] [nM] | Ki [2] [nM] | EC50 [3] [nM] | Emax [4] [%] | inhibition [5] [%] | IC50 [6] [nM] | inhibition [7] [%] | inhibition [8] [%] | inhibition at 10 µM [9] [%] | inhibition [10] [%] | Activity [11] | inhibition in vivo at 1.25 mg/kg [12] [%] | inhibition [13] [%] | inhibition [14] [%]
CC1OC2(CCN(CCc3ccccc3)CC2)CN(C(C)C)C1=O (stereo unspecified) | 33 | 30 | 21 | 100 | 35 | 3900 | – | – | – | – | – | – | – | –
CCN1CC2(CCN(CCc3ccccc3)CC2)O[C@H](C)C1=O | 26 | 66 | 49 | 83 | 14 | 4700 | – | – | – | – | – | – | – | –
CC1OC2(CCN(CCc3ccccc3)CC2)CN(Cc2ccccc2)C1=O (stereo unspecified) | 2 | 10 | 2 | 97 | 67 | 100 | – | – | – | – | – | – | – | –
CN1CC2(CCN(CCc3ccccc3)CC2)OCC1=O | > 1000 | 282 | > 1000 | – | 36 | – | < 50 | < 50 | – | – | – | – | – | –
CC1OC2(CCN(CCc3ccccc3)CC2)CN(CCc2ccccc2F)C1=O (stereo unspecified) | > 1000 | 892 | > 1000 | – | 7 | > 10000 | < 50 | < 50 | < 50 | – | – | – | – | –
C[C@H]1OC2(CCN(CCc3ccccc3)CC2)CN(C)C1=O | 91 | 277 | 319 | 83 | 19 | > 10000 | – | – | < 50 | – | – | – | – | –
C[C@@H]1OC2(CCN(CCc3ccccc3)CC2)CN(C)C1=O | > 1000 | 165 | 1780 | – | 6 | – | – | < 50 | – | – | – | – | – | –
CCN1CC2(CCN(CCc3c(F)cccc3F)CC2)O[C@H](C)C1=O | 21 | 609 | 16 | 95 | 10 | – | – | – | – | – | – | – | – | –
COc1ccc2c3c1O[C@H]1C(=O)CC[C@@]4(O)[C@@H](C2)N(C)CC[C@]314 [OXYCODONE] | – | – | – | – | – | > 10000 | – | – | < 50 | < 50 | Toxic | 51 | – | –
CCN1CC2(CCN(CCc3cccc(F)c3F)CC2)O[C@H](C)C1=O | 22 | 556 | 10 | 90 | 8 | > 10000 | – | – | < 50 | – | – | – | – | –
CC1OC2(CCN(CCc3ccccc3)CC2)CN(c2ccccc2)C1=O (stereo unspecified) | – | – | – | 85 | 72 | – | – | – | – | – | – | – | – | –
CN1CC2(CCN(CCc3ccccc3)CC2)OC(C)(C)C1=O | > 1000 | 50 | 624 | – | 37 | – | – | < 50 | – | – | – | – | – | –
CCN1CC2(CCN(CCc3ccccn3)CC2)OC2(CC2)C1=O | > 1000 | 783 | 1500 | – | 0 | – | – | – | – | – | – | – | < 50 | –
CCN1CC2(CCN(CCc3ccc(F)cc3)CC2)O[C@H](C)C1=O | 164 | 76 | 108 | 81 | 21 | 1500 | – | – | – | – | – | – | – | –
CCN1CC2(CCN(CCc3cccc(F)c3)CC2)O[C@H](C)C1=O | 56 | 64 | 56 | 83 | 42 | – | – | – | – | – | – | – | – | –
O=C1N(c2cccnc2C(F)(F)F)CC2(CCN(CCc3ccccc3F)CC2)OC12CC2 | – | – | – | – | 57 | – | – | – | < 50 | – | – | – | – | –
CCN1CC2(CCN(CCc3ccccc3F)CC2)O[C@H](C)C1=O | 18 | 68 | 24 | 84 | 15 | 4000 | – | – | – | – | – | – | – | –
CCN1CC2(CCN(CCc3cc(F)ccc3F)CC2)O[C@@H](C)C1=O | – | – | – | – | 9 | > 10000 | – | – | < 50 | – | – | – | – | –
Cc1cc(OCCN2CCOCC2)nn1-c1ccc2ccccc2c1 | – | – | – | – | – | – | – | – | < 50 | – | – | – | < 50 | < 50
CN1CC2(CCN(CCc3ccccc3)CC2)OC2(CC2)C1=O | 221 | 161 | 442 | 85 | 41 | 3600 | – | – | – | – | – | – | – | –
CC[C@H]1OC2(CCN(CCc3ccccc3)CC2)CN(C)C1=O | 192 | 139 | 505 | 90 | 13 | 6600 | – | – | – | – | – | – | – | –
CC(C)C1OC2(CCN(CCc3ccccc3)CC2)CN(C)C1=O (stereo unspecified) | 115 | 122 | 174 | 85 | 29 | 6200 | – | – | – | – | – | – | – | –
C[C@H]1OC2(CCN(CCc3ccccc3)CC2)CN(C2CC2)C1=O | 6 | – | 7 | 91 | 51 | 4500 | – | – | – | – | – | – | – | –
CCN1CC2(CCN(CCc3ccccc3)CC2)OC(C)C1=O (stereo unspecified) | 41 | 43 | 65 | 84 | 27 | 3100 | – | – | – | – | – | – | – | –
CCN1CC2(CCN(CCc3ccc(F)cc3F)CC2)O[C@H](C)C1=O | 62 | 94 | 53 | 92 | 11 | 2500 | – | – | – | – | – | – | – | –
CC1OC2(CCN(CCc3ccccc3)CC2)CN(CCc2ccccc2)C1=O (stereo unspecified) | 20 | – | 22 | 94 | 58 | 200 | – | – | – | – | – | – | – | –
CN1CC2(CCN(CCc3ccccc3)CC2)OC(c2ccccc2)C1=O (stereo unspecified) | > 1000 | 242 | > 1000 | – | 26 | – | < 50 | < 50 | – | – | – | – | – | –
CC1OC2(CCN(CCc3ccccc3)CC2)CN(C)C1=O (stereo unspecified) | 156 | 142 | 787 | 79 | 16 | > 10000 | – | – | < 50 | – | – | – | – | –
